The source of these data is publication PMC9827864, “In Situ Inhibitor Synthesis and Screening by Fluorescence Polarization: An Efficient Approach for Accelerating Drug Discovery” (Angewandte Chemie (International Ed. in English), 2022).

The nature of series [1]: Metabolic stability in rat liver microsomes. The format is in vitro ADME. As for the experimental part: page 15: SUPPORTING INFORMATION 3. Molecular Modeling A structure of PHD2 in complex with Fe and a 2OG competing inhibitor (PDB ID: 4KBZ) was obtained from PDB website. The structure files of protein and compounds for docking were prepared using the Discovery Studio (DS) 2020 software. A water molecule HOH624, conserved in the active binding site of PHD2, was retained during the docking. Residues of PHD2 around the native ligand […] Subsequently, the ligand was removed; the Fe (II) was retained during the docking. Compounds were docked into the binding sites using GOLD 5.1. Docking procedures were performed using the default setting with 100 genetic algorithm (GA) runs of ligands. […] The samples were centrifuged at 5000 rpm f or 10 min; the supernatants were then analyzed by HPLC. […] Subsequently, these samples were analyzed for reticulocytes in the center for new drug safety evaluation and research of China Pharmaceutical University (ADVIA 2120 hematology system). 5.2 In vivo EPO increased assay Plasma EPO was evaluated using the erythropoietin quantikine ELISA kit for mice (MEP00B). […] Plasma was collected by centrifugation at 3000 rpm, these plasmas were detected by E PO ELISA. […] The hemoglobin of samples was analyzed in the center for new drug safety evaluation and research at China Pharmaceutical University (ADVIA 2120 hematology system). […]

For series [2], the system named is reticulocytes in C57BL/6J mice. In words: In vivo reticulocytes increased assay. On the set-up: species or system mouse. The procedure:
A structure of PHD2 in complex with Fe and a 2OG competing inhibitor (PDB ID: 4KBZ) was obtained from PDB website. The structure files of protein and compounds for docking were prepared using the Discovery Studio (DS) 2020 software. A water molecule HOH624, conserved in the active binding site of PHD2, was retained during the docking. Residues of PHD2 around the native ligand (radius = 10 Å) were defined as the binding sites for docking. Subsequently, the ligand was removed; the Fe (II) was retained during the docking. Compounds were docked into the binding sites using GOLD 5.1. Docking procedures were performed using the default setting with 100 genetic algorithm (GA) runs of ligands. […]
17 was preincubated with microsomes from different species (0.5 mg/mL) at 1 μM for 5 min at 37 °C in 100 mM PBS buffer (pH 7.4). […] The samples were centrifuged at 5000 rpm f or 10 min; the supernatants were then analyzed by HPLC. […]
Representative compounds and Roxadustat were formulated in normal saline solution. […] Subsequently, these samples were analyzed for reticulocytes in the center for new drug safety evaluation and research of China Pharmaceutical University (ADVIA 2120 hematology system). […]
Plasma EPO was evaluated using the erythropoietin quantikine ELISA kit for mice (MEP00B). […]
in normal saline solution. […] Plasma was collected by centrifugation at 3000 rpm, these plasmas were detected by E PO […]

As to `O=C(N/N=C/c1cccc(O)c1Cl)c1cnc(-c2cccnn2)[nH]c1=O` [compound 17], in series [1] (after 50 min, 1 μM, 0.5 mg/mL), the “compound present (remaining) in liver microsomes” value was more than 80%. Also, in series [1] (pH 7.4, read-out: t1/2 in liver microsomes), the half-life at 1 μM is more than 1.67 h. In addition, the reticulocyte induction result in series [2] (C57BL/6J male mice, 20 mg kg−1 po, three administrations, 72 h) is “superior with respect to inducing reticulocytes compared to the other tested ISISS compounds”. The “changes in reticulocytes, multiple doses” value in series [2] (C57BL/6J mice, 5, 10 and 20 mg kg−1 po) is recorded as “dose‐dependent increase in reticulocytes”.
